Reference: the NIST ThermoML archive (doi:10.1021/acs.jced.5b00021)
Numbers after ± are expanded uncertainties.

assay: molar heat capacity at constant pressure; conditions: 283 K; 101.33 kPa; Crystal; Small sample (50 mg) DSC

Structure (SMILES)	molar heat capacity at constant pressure
O=[N+]([O-])C(=C1NCCCCN1)[N+](=O)[O-] [2-(dinitromethylene)-1,3-diazacycloheptane]	204.6 ± 4 J/K/mol
CC1CNC(=C([N+](=O)[O-])[N+](=O)[O-])N1 (stereo not given) [2-(dinitromethylene)-4-methylimidazolidine]	209.78 ± 4.1 J/K/mol
NC(N)=C([N+](=O)[O-])[N+](=O)[O-] [1,1-diamino-2,2-dinitroethene]	169.55 ± 3.4 J/K/mol
O=[N+]([O-])C(=C1NCCN1)[N+](=O)[O-] [2-(dinitromethylene)-1,3-diazacyclopentane]	197.45 ± 4 J/K/mol
O=[N+]([O-])C(=C1NCCCN1)[N+](=O)[O-] [2-(dinitromethylene)-1,3-diazacyclohexane]	200.18 ± 4 J/K/mol

same assay, conditions: 293 K; 101.33 kPa; Crystal; Small sample (50 mg) DSC

Structure (SMILES)	molar heat capacity at constant pressure
O=[N+]([O-])C(=C1NCCCCN1)[N+](=O)[O-] [2-(dinitromethylene)-1,3-diazacycloheptane]	211.67 ± 4.2 J/K/mol
CC1CNC(=C([N+](=O)[O-])[N+](=O)[O-])N1 (stereo not given) [2-(dinitromethylene)-4-methylimidazolidine]	215.8 ± 4.3 J/K/mol
NC(N)=C([N+](=O)[O-])[N+](=O)[O-] [1,1-diamino-2,2-dinitroethene]	174.14 ± 3.6 J/K/mol
O=[N+]([O-])C(=C1NCCN1)[N+](=O)[O-] [2-(dinitromethylene)-1,3-diazacyclopentane]	202.67 ± 4 J/K/mol
O=[N+]([O-])C(=C1NCCCN1)[N+](=O)[O-] [2-(dinitromethylene)-1,3-diazacyclohexane]	205.26 ± 4.1 J/K/mol

same assay, conditions: 298 K; 101.33 kPa; Crystal; Small sample (50 mg) DSC

Structure (SMILES)	molar heat capacity at constant pressure
O=[N+]([O-])C(=C1NCCCCN1)[N+](=O)[O-] [2-(dinitromethylene)-1,3-diazacycloheptane]	215.31 ± 4.2 J/K/mol
CC1CNC(=C([N+](=O)[O-])[N+](=O)[O-])N1 (stereo not given) [2-(dinitromethylene)-4-methylimidazolidine]	218.81 ± 4.3 J/K/mol
NC(N)=C([N+](=O)[O-])[N+](=O)[O-] [1,1-diamino-2,2-dinitroethene]	176.51 ± 3.6 J/K/mol
O=[N+]([O-])C(=C1NCCN1)[N+](=O)[O-] [2-(dinitromethylene)-1,3-diazacyclopentane]	205.28 ± 4.2 J/K/mol
O=[N+]([O-])C(=C1NCCCN1)[N+](=O)[O-] [2-(dinitromethylene)-1,3-diazacyclohexane]	207.71 ± 4.1 J/K/mol

same assay, conditions: 303 K; 101.33 kPa; Crystal; Small sample (50 mg) DSC

Structure (SMILES)	molar heat capacity at constant pressure
O=[N+]([O-])C(=C1NCCCCN1)[N+](=O)[O-] [2-(dinitromethylene)-1,3-diazacycloheptane]	218.75 ± 4.4 J/K/mol
CC1CNC(=C([N+](=O)[O-])[N+](=O)[O-])N1 (stereo not given) [2-(dinitromethylene)-4-methylimidazolidine]	221.82 ± 4.5 J/K/mol
NC(N)=C([N+](=O)[O-])[N+](=O)[O-] [1,1-diamino-2,2-dinitroethene]	178.73 ± 3.6 J/K/mol
O=[N+]([O-])C(=C1NCCN1)[N+](=O)[O-] [2-(dinitromethylene)-1,3-diazacyclopentane]	207.89 ± 4.2 J/K/mol
O=[N+]([O-])C(=C1NCCCN1)[N+](=O)[O-] [2-(dinitromethylene)-1,3-diazacyclohexane]	210.16 ± 4.1 J/K/mol

same assay, conditions: 313 K; 101.33 kPa; Crystal; Small sample (50 mg) DSC

Structure (SMILES)	molar heat capacity at constant pressure
O=[N+]([O-])C(=C1NCCCCN1)[N+](=O)[O-] [2-(dinitromethylene)-1,3-diazacycloheptane]	226.03 ± 4.4 J/K/mol
CC1CNC(=C([N+](=O)[O-])[N+](=O)[O-])N1 (stereo not given) [2-(dinitromethylene)-4-methylimidazolidine]	227.84 ± 4.5 J/K/mol
NC(N)=C([N+](=O)[O-])[N+](=O)[O-] [1,1-diamino-2,2-dinitroethene]	183.32 ± 3.7 J/K/mol
O=[N+]([O-])C(=C1NCCN1)[N+](=O)[O-] [2-(dinitromethylene)-1,3-diazacyclopentane]	213.29 ± 4.4 J/K/mol
O=[N+]([O-])C(=C1NCCCN1)[N+](=O)[O-] [2-(dinitromethylene)-1,3-diazacyclohexane]	215.05 ± 4.3 J/K/mol

same assay, conditions: 323 K; 101.33 kPa; Crystal; Small sample (50 mg) DSC

Structure (SMILES)	molar heat capacity at constant pressure
O=[N+]([O-])C(=C1NCCCCN1)[N+](=O)[O-] [2-(dinitromethylene)-1,3-diazacycloheptane]	233.1 ± 4.6 J/K/mol
CC1CNC(=C([N+](=O)[O-])[N+](=O)[O-])N1 (stereo not given) [2-(dinitromethylene)-4-methylimidazolidine]	233.86 ± 4.7 J/K/mol
NC(N)=C([N+](=O)[O-])[N+](=O)[O-] [1,1-diamino-2,2-dinitroethene]	187.91 ± 3.7 J/K/mol
O=[N+]([O-])C(=C1NCCN1)[N+](=O)[O-] [2-(dinitromethylene)-1,3-diazacyclopentane]	218.52 ± 4.4 J/K/mol
O=[N+]([O-])C(=C1NCCCN1)[N+](=O)[O-] [2-(dinitromethylene)-1,3-diazacyclohexane]	220.13 ± 4.3 J/K/mol

same assay, conditions: 333 K; 101.33 kPa; Crystal; Small sample (50 mg) DSC

Structure (SMILES)	molar heat capacity at constant pressure
O=[N+]([O-])C(=C1NCCCCN1)[N+](=O)[O-] [2-(dinitromethylene)-1,3-diazacycloheptane]	240.18 ± 4.9 J/K/mol
CC1CNC(=C([N+](=O)[O-])[N+](=O)[O-])N1 (stereo not given) [2-(dinitromethylene)-4-methylimidazolidine]	239.88 ± 4.9 J/K/mol
NC(N)=C([N+](=O)[O-])[N+](=O)[O-] [1,1-diamino-2,2-dinitroethene]	192.5 ± 3.9 J/K/mol
O=[N+]([O-])C(=C1NCCN1)[N+](=O)[O-] [2-(dinitromethylene)-1,3-diazacyclopentane]	223.74 ± 4.5 J/K/mol
O=[N+]([O-])C(=C1NCCCN1)[N+](=O)[O-] [2-(dinitromethylene)-1,3-diazacyclohexane]	225.02 ± 4.5 J/K/mol

same assay, conditions: 343 K; 101.33 kPa; Crystal; Small sample (50 mg) DSC

Structure (SMILES)	molar heat capacity at constant pressure
O=[N+]([O-])C(=C1NCCCCN1)[N+](=O)[O-] [2-(dinitromethylene)-1,3-diazacycloheptane]	247.25 ± 4.9 J/K/mol
CC1CNC(=C([N+](=O)[O-])[N+](=O)[O-])N1 (stereo not given) [2-(dinitromethylene)-4-methylimidazolidine]	245.9 ± 4.9 J/K/mol
NC(N)=C([N+](=O)[O-])[N+](=O)[O-] [1,1-diamino-2,2-dinitroethene]	197.09 ± 4 J/K/mol
O=[N+]([O-])C(=C1NCCN1)[N+](=O)[O-] [2-(dinitromethylene)-1,3-diazacyclopentane]	229.14 ± 4.5 J/K/mol
O=[N+]([O-])C(=C1NCCCN1)[N+](=O)[O-] [2-(dinitromethylene)-1,3-diazacyclohexane]	230.1 ± 4.5 J/K/mol

same assay, conditions: 353 K; 101.33 kPa; Crystal; Small sample (50 mg) DSC

Structure (SMILES)	molar heat capacity at constant pressure
O=[N+]([O-])C(=C1NCCCCN1)[N+](=O)[O-] [2-(dinitromethylene)-1,3-diazacycloheptane]	254.33 ± 5.1 J/K/mol
CC1CNC(=C([N+](=O)[O-])[N+](=O)[O-])N1 (stereo not given) [2-(dinitromethylene)-4-methylimidazolidine]	251.92 ± 5.1 J/K/mol
NC(N)=C([N+](=O)[O-])[N+](=O)[O-] [1,1-diamino-2,2-dinitroethene]	201.68 ± 4 J/K/mol
O=[N+]([O-])C(=C1NCCN1)[N+](=O)[O-] [2-(dinitromethylene)-1,3-diazacyclopentane]	234.36 ± 4.7 J/K/mol
O=[N+]([O-])C(=C1NCCCN1)[N+](=O)[O-] [2-(dinitromethylene)-1,3-diazacyclohexane]	234.99 ± 4.7 J/K/mol
